In PubChem BioAssay (NCI):
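These data come from cells grown in 96-well plates and exposed to compound for 48 hours at five concentrations. TGI: concentration producing complete growth inhibition.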

Legend:
Experiment in all cases: NCI tumour cell line growth inhibition, 48 h
CCRF-CEM leukemia = system: CCRF-CEM leukemia
COLO 205 colon = system: COLO 205 colon
HCT-15 colon = system: HCT-15 colon
HS 578T breast = system: HS 578T breast
MALME-3M melanoma = system: MALME-3M melanoma
MDA-MB-435 = system: MDA-MB-435
MOLT-4 leukemia = system: MOLT-4 leukemia
PC-3 prostate = system: PC-3 prostate
RPMI-8226 leukemia = system: RPMI-8226 leukemia
SF-268 CNS = system: SF-268 CNS
SK-MEL-5 melanoma = system: SK-MEL-5 melanoma
SNB-75 CNS = system: SNB-75 CNS
T-47D breast = system: T-47D breast

Structure (SMILES)	TGI (CCRF-CEM leukemia) [µM]	TGI (COLO 205 colon) [µM]	TGI (HCT-15 colon) [µM]	TGI (HS 578T breast) [µM]	TGI (MALME-3M melanoma) [µM]	TGI (MDA-MB-435) [µM]	TGI (MOLT-4 leukemia) [µM]	TGI (PC-3 prostate) [µM]	TGI (RPMI-8226 leukemia) [µM]	TGI (SF-268 CNS) [µM]	TGI (SK-MEL-5 melanoma) [µM]	TGI (SNB-75 CNS) [µM]	TGI (T-47D breast) [µM]
O=C(Nc1nccs1)NS(=O)(=O)n1cnc2ccccc21	> 100	> 100	> 100	> 100	> 100	> 100	> 100	> 100	> 100	> 100	> 100	> 100	> 100
O=C1NC(N2CCCCC2)=N/C1=C\c1ccccc1	> 100	> 100	> 100	> 100	> 100	> 100	> 100	> 100	> 100	> 100		> 100	> 100
C(/C=C/Nc1ccc(-c2ccccc2)cc1)=Nc1ccc(-c2ccccc2)cc1	> 100	> 100	> 100	> 100		> 100	> 100	> 100	> 100	> 100	> 100	> 100	> 100
CCN(CCCl)c1cc(CN(C)C)cc(NC(=O)c2ccc(C(=O)Nc3ccccc3)cc2)c1	1.14	2.27	4.53	0.583	0.425	0.613	1.78	1.56	3.14	13.6		4.13	9.91
CCOc1cc(/C=C2\N=C(c3ccccc3)N(c3nc4ccccc4s3)C2=O)ccc1O	> 100		82.5	85.6		> 100	58.9	79.4	65.4	> 100	41.4	> 100	> 100
O=P(O)(O)CC1OC(CO)C(O)C1O (centres undefined)	> 100	> 100	> 100	> 100	> 100	> 100	> 100	> 100		> 100	> 100	> 100	> 100
O=C1c2cc([N+](=O)[O-])sc2C(=O)c2cc([N+](=O)[O-])sc21	> 19.8	6.1	3.55	35	2.38	4.73	> 22.7	15.9		10	7.21	26.3	10.8
C[C@H](CO)C1=CC(C#C[Si](C)(C)C)N(C(=O)Oc2ccccc2)c2ccccc21 (some centres undefined)	53.1	24.3	9.71	26.4		7.25	44	24	> 100	27.6	26.6	23	38.1
C(#C[C@@]12CCC[C@@H]1N(Cc1ccccc1)CO2)c1ccc2c(c1)OCO2	> 100	> 100	> 100	> 100	> 100	> 100	> 100	> 100	> 100	> 100		> 100	> 100
Brc1ccc(C2CC3(c4ccccc4)ON=C(c4ccccc4)N3c3ccccc3S2)cc1 (centres undefined)	> 100	> 100	> 100	> 100	> 100	> 100	> 100	> 100		> 100	> 100	> 100	> 100
COc1cc(OC2OC(CO)C(O)C(O)C2O)c2c(c1)O[C@@H]1[C@H](O)Oc3cc(OC)c(OC)cc3[C@]1(O)C2=O (some centres undefined)	> 25	> 25	> 25	> 25		> 25	> 25	> 25	> 25	> 25	> 25	> 25	> 25
C=CC(C)(C)n1cc(C2=C(O)C(=O)C(c3c(CC=C(C)C)[nH]c4ccccc34)=C(O)C2=O)c2ccccc21	8.96	3.23	7.6	25	3.9	2.38	9.51	4.78		5.13	4.1	4.1	7.59
Cc1ccc2c(=O)c(C(=O)NNC(=S)NC3CCCCC3)c[nH]c2n1	> 100	> 100	> 100	> 100	> 100	89	> 100	> 100	> 100	> 100	> 100		> 100
CC(=O)OCCCCn1cnc2c(Cl)nc(Nc3ccccc3)nc21	> 100	> 100	> 100	> 100	> 100	> 100	> 100	> 100	> 100		> 100		> 100
CCSc1nc(C)nc2c1sc1nc3ccccc3n12	> 100	> 100	> 100	92.9		> 100	> 100	> 100	> 100	> 100	> 100	> 100	> 100
COc1ccc(NC(=O)CC(=O)N2N=C(C)C(N=Nc3ccc(C(=O)O)cc3)C2=O)cc1 (centres undefined)	> 100	> 100	> 100	> 100	> 100	> 100		> 100		> 100	> 100	> 100	> 100
OC1(C2(c3ccc(Cl)cc3)CCCC2)c2ccccc2C2=NCCN21 (centres undefined)	38.5	23.9	31	> 100	34.7	26.7	32.2	25.1		35.1	25.1	12.7	22
OC[C@@H](O)[C@H](O)[C@@H](O)/C=N/Nc1ccc(Cl)nn1	> 100	> 100	> 100	> 100	> 100	> 100	> 100	> 100	> 100	> 100	> 100		> 100
